Test results reported in patent US9308210B2, “Method for modulating canonical Wnt pathway using folate and inositol” (University of South Florida, priority 2009, dated 2016).
Where “and” joins values, the source holds several entries; their conditions need not be identical. Equal values may be shown once. Where a name gives a salt, the structure may show the parent alone.

Assays:
[1] = test system: neutral lipid droplets in heart and placenta; experiment: Oil Red O staining of neutral lipid droplets in E15.5 heart and placenta; assay type: in vivo, mouse; conditions: for ORO neutral lipid localization in the placenta: labyrinth and maternal decidua
Text: Oil Red O (ORO), a fat soluble dye, was used to detect neutral lipids (triglycerides, diacylglycerols, and cholesterol esters) in cryosectioned E15.5 cardiac and placental tissues. The staining methodology was followed as published. This method estimates tissue lipid content and localization (Mehlem et al., 2013). Lipid droplets stain red and nuclei blue. Polar lipids (phospholipids, sphingolipids and ceramides) are not stained (Fowler and Greenspan, 1985).

C57BL/6 mouse embryos = experiment: Doppler ultrasonography at E15.5 of mouse embryos exposed to Li or HCy on E6.75, FA rescue; assay type: in vivo; conditions: for Valve Regurgitation (percent of embryos): hydrochloride
Text: To determine whether the results in the avian system would extend to the mammalian system, the inventors conducted studies in the mouse embryo. All mice were maintained according to protocols approved by the Institutional Animal Care and Use Committee at the University of South Florida. The C57BL/6 mouse strain (Jackson Laboratories, Bar Harbor, Me.) was used throughout the study. E0.5 was defined as the morning when the vaginal sperm plug was detected. Timed pregnant mice were randomly allocated to receive a single dose of 100 μl of 6.25 mg/ml Li chloride, as determined previously (Chen et al., 2008), 100 μl of 75 μM HCy, or 100 μl of 6.25 mg/ml sodium chloride (control group); all treatments were given intraperitoneally (i.p). On E15.5, the utero-placental circulation of the pregnant mice, and the central and peripheral circulations of the embryos were examined non-invasively in utero using Doppler ultrasonography (Gui et al., 1996; Linask and Huhta, 2000). Sixty-eight embryos were exposed to Li, 59 to HCy and 42 to physiological saline.
An HCy concentration of 75 μM, used for maternal exposure, was determined empirically using different doses of HCy (i.e. 150, 75, 50 and 15 μM). The minimal teratogenic dose was determined to be 75 μM. […] The single i.p. injection of HCy at E6.75 produced a high number of valve defects (66%), as well as resorptions (46%). […] Because not all embryos within litters are at exactly the same stage of development, the variability of effects seen with either Li or HCy probably reflects the differences in developmental stage.
As a control diet (i.e. normal mouse chow), mice continued to receive 3.3 mg/kg of FA as the baseline to maintain the health of the female mice. […] The animal chow supplemented with 10.5 mg/kg of FA was prepared for us by Harlan Laboratories. As recommended by Harlan, the calculations for the FA level in the special diet are based on the metabolic body weight of mice. Because of the obvious large difference in body weight between humans and mice, and because of the large difference in metabolic rate, Harlan uses the metabolic weight as a method of scaling these differences between species; for mice this was calculated to be BW0.75 (i.e. metabolic weight equals body weight to the 0.75 power). Each mouse consumes approximately 4 g of chow per day; therefore, to obtain the desired dose of 10.5 mg/kg, the inventors added 7.2 mg/kg of FA to the normal 3.3 mg/kg that is present in commercial chow. […]
Doppler ultrasonographic examinations were carried out using the Philips Sonos 5500 (Andover, Mass.) with a 12 MHz transducer and, more recently, with a Vevo 770 (VisualSonics) system. Both instruments provided similar echo patterns. On E15.5, the pregnant mice were anesthetized using a Surgivet Tech 4 anesthesia system (Waukesha, Wis.) with inhalation anesthesia, consisting of 3% isoflurane, administered through a nose cone; the mice were then maintained on 1% isoflurane with 21% oxygen. The mother was placed supine on a heating pad with electrode footpads. The heart rate and temperature of the pregnant mice were monitored using a THM100 (Indus Instruments, Houston, Tex.) during scanning. The body temperature was maintained at 37° C.
Maternal uterine artery blood flow velocity waveforms were obtained and the pulsatility index was calculated. The embryos were visualized and their position mapped in each uterine horn. Blood flow in the heart and blood vessels was detected in each embryo using color Doppler, and blood flow velocity waveforms were obtained using pulsed wave Doppler. Once the embryonic heart was identified by color Doppler, the sample volume of the pulsed Doppler was placed over the entire heart to obtain blood velocities. The gate length was adjusted to completely insonate the beating embryonic heart. The high-pass filter was at its lowest setting of 50 Hz. […]

[2] = test system: Hex and Islet-1 (Isl1) gene expression; experiment: In situ hybridization of Hex and Isl1 in avian heart fields after Li, HCy or Wnt3A with or without FA; assay type: in vivo, chick
Description: In situ hybridizations on control and experimentally manipulated chick embryos were carried out using digoxigenin-labeled riboprobes with alkaline phosphatase detection (Linask et al., 2001). Images of whole-mounted chick embryos were taken with a Nikon DS-L2 camera unit. Probes for chick Hex were provided by Parker Antin, University of Arizona and probes for chick Islet-1 (Isl1) were provided by Thomas Jessell, Columbia University, NY.
Chick embryos (HH stages 3+/4) were incubated on agarose albumin supplemented with HCy (50 μM). Instead of giving a single injection in ovo, embryos were exposed to HCy for 8 hours in order to define the effect on early cardiac gene expression. Another group of embryos were exposed to HCy for 24 hours at which time the effects on gene expression were determined. To analyze the effects during the looping stages, incubation was stopped after between 22 and 24 hours. After the 8-hour incubation, Li and HCy suppressed Hex and Isl1 expression in the cardiogenic crescent (FIG. 5).
The inventors next analyzed whether FA rescues the downregulation of Hex and Isl1. Chick embryos were exposed to Li, HCy or Wnt3A, as above, with and without 10 μg/ml of FA; the experiments were terminated after either an 8-hour or 24-hour exposure period, at which time in situ hybridizations for gene expression were performed. After 8 hours of exposure, Li, HCy and Wnt3A all suppressed Hex (FIGS. 9D, G, J) and Isl1 (FIGS. 10D, G, J) compared with the control embryonic expression patterns (FIG. 9A; FIG. 10A). […] Thus, FA supplementation suppressed the potentiation of the inhibitory Wnt signaling, allowing for normal induction of Hex and Isl1 gene expression.

[3] = echo at E15.5 after exposure on E6.75
[4] = echo at E15.5 after single exposure on E6.75
[5] = median, E15.5 after exposure at E6.75

N[C@H]1CCSC1=O [HCy, L-homocysteine thiolactone hydrochloride]
ORO staining of neutral lipids in the heart [1]: did not alter ORO staining in the trabeculae | ORO neutral lipid localization in the placenta [1]: patch-like neutral lipid localization | outflow peak velocity, maximum mean value (C57BL/6 mouse embryos; E15.5): 84.0 | outflow peak velocity, maximum value (C57BL/6 mouse embryos; E15.5): 84.00 cm/s | outflow peak velocity, minimum mean value (C57BL/6 mouse embryos; E15.5): 18.5 | outflow peak velocity, minimum value (C57BL/6 mouse embryos; E15.5): 18.53 cm/s | AV valve regurgitation, percent of embryos (C57BL/6 mouse embryos; [3]): 10% | SL valve regurgitation, percent of embryos (C57BL/6 mouse embryos; [3]): 53% | both SL and AV valve regurgitation, percent of embryos (C57BL/6 mouse embryos; [3]): 3% | Valve Regurgitation (embryos affected/total) (C57BL/6 mouse embryos; [4]): 39/59 | Valve Regurgitation (percent of embryos) (C57BL/6 mouse embryos; [4]): 66% and 66.1% | Valve Regurgitation (percent of embryos) (C57BL/6 mouse embryos; echo at E15.5 after single exposure on E6.75, listed as HCys): 66.1% | minimal teratogenic dose (C57BL/6 mouse embryos; maternal exposure, mouse, 150, 75, 50 and 15 μM tested): 75 µM | Embryonic A vel (C57BL/6 mouse embryos; [5]): 40.14 cm/s | Embryonic Descending Aorta PI (C57BL/6 mouse embryos; [5]): 1.99 | Embryonic Ductus Veno sus PI (C57BL/6 mouse embryos; [5]): 0.97 | Embryonic E vel (C57BL/6 mouse embryos; [5]): 12.25 cm/s | Embryonic E/A ratio (C57BL/6 mouse embryos; [5]): 0.30 | Embryonic ET % (C57BL/6 mouse embryos; [5]): 42.51% | Embryonic Heart Rate (C57BL/6 mouse embryos; [5]): 181 beats/min | Embryonic ICT % (C57BL/6 mouse embryos; [5]): 6.56% | Embryonic IRT % (C57BL/6 mouse embryos; [5]): 11.93% | Embryonic MPI (C57BL/6 mouse embryos; [5]): 0.44 | Embryonic OF peak velocity (C57BL/6 mouse embryos; [5]): 39.92 cm/s | Embryonic Umbilical Artery PI (C57BL/6 mouse embryos; [5]): 1.55 | Maternal Heart Rate (C57BL/6 mouse embryos; [5]): #458 beats/min | Maternal Uterine Artery PI (C57BL/6 mouse embryos; [5]): 2.82 | valve defects after i.p. injection on E7.75 (C57BL/6 mouse embryos; mouse, in vivo, ip): did not cause any valve defects | Hex and Isl1 expression in the cardiogenic crescent ([2]; 8 hours of exposure, HH stages 3+/4): suppressed | Isl1 gene expression ([2]; by 24 hours of Li or HCy exposure): recovered

Nc1nc2ncc(CNc3ccc(C(=O)N[C@@H](CCC(=O)O)C(=O)O)cc3)nc2c(=O)[nH]1 [FA, folic acid]
ORO neutral lipid localization in the placenta [1]: more normal organization of labyrinth | rescue of cardiac defects by baseline FA supplementation (C57BL/6 mouse embryos; 3.3 mg/kg of FA in normal mouse chow): does not rescue cardiac defects | normalization of exposure effects by FA provided on E6.75 (C57BL/6 mouse embryos; FA i.p. on E6.75): normalized the effects of HCy, but not Li | Hex and Isl1 gene expression with FA supplementation ([2]; embryos exposed to Li, HCy or Wnt3A, FA 10 μg/ml, 8 hours): normalized gene expression patterns | heart formation and Hex/Isl1 expression with FA supplementation ([2]; embryos exposed to Li, HCy or Wnt3A, FA 10 μg/ml, 24 hours): normal beating hearts had formed
